From publication PMC6060096, “Novel 3D Structure Based Model for Activity Prediction and Design of Antimicrobial Peptides” (Scientific Reports, 2018)
In brackets after ≈: the same amount, converted by molar mass. Residues, ends and D or L forms follow the SMILES beside them.

Columns and labels:
Assay type in all cases: cell-based
[1] = tested on: Bacillus subtilis (CMCC(B)63501); test: microbe, parasite or virus in culture
Experimental: (§1) The experimentally determined strains are as follows: Listeria monocytogenes (ATCC 19115), Staphylococcus aureus (CMCC(B)26003), Bacillus subtilis (CMCC(B)63501), Escherichia coli (CMCC(B) 44102), Pseudomonas aeruginosa (CMCC(B)10104), Enterococcus faecalis (clinical strains) from China Pharmaceutical University Microbiology Laboratory. Minimal inhibitory concentration(MIC) of peptides were determined using broth microdilution method. Two-fold serial dilutions of eight peptides were prepared from 1024.0 to 1.0 μg/ml in 96-well microtiter plate (100.0 μl of each well). Then peptide dilutions were mixed with LB broth and bacterial culture (100.0 μl) containing 2.0 × 10^5 CFU/ml. Final peptide concentrations ranged from 0.5 to 512.0 μg/ml. The final bacterial concentration was approximately 1.0 × 10^5 CFU/ml. Positive controls were incubated with Cefuroxime instead of peptide, at concentrations from 0.5 to 512.0 μg/ml. Negative and blank controls were incubated, respectively, with sterile deionized water or only LB broth. Microtiter plates were incubated at 37 °C for 24 h under normal atmospheric conditions. OD600 was measured using a microplate spectrophotometer (Multiskan GO, Thermo Scientific, USA). MIC was recorded as the endpoint where no difference of OD600 could be detected with respect to the blank LB broth. MIC assays were performed three times for all strains.

[2] = tested on: Escherichia coli (CMCC(B) 44102); test: microbe, parasite or virus in culture
Experimental: as §1

[3] = tested on: Listeria monocytogenes (ATCC 19115); test: microbe, parasite or virus in culture
Experimental: as §1

[4] = tested on: Pseudomonas aeruginosa (CMCC(B)10104); test: microbe, parasite or virus in culture
Experimental: as §1

[5] = tested on: Staphylococcus aureus (CMCC(B)26003); test: microbe, parasite or virus in culture
Experimental: as §1

[6] = tested on: Enterococcus faecalis (clinical strains); test: MIC, broth microdilution; conditions: LB broth, ~1.0 × 10^5 CFU/ml, 0.5 to 512.0 μg/ml, 37 °C, 24 h, OD600, performed three times
Experimental: as §1

Row | Compound | MIC Listeria monocytogenes ([3]; ATCC 19115, 24 h) | MIC Staphylococcus aureus ([5]; CMCC(B)26003, 24 h) | MIC Bacillus subtilis ([1]; CMCC(B)63501, 24 h) | other results
1 | CO/N=C(\C(=O)N[C@@H]1C(=O)N2C(C(=O)O)=C(COC(N)=O)CS[C@H]12)c1ccco1 [Cefuroxime, reference compound] |  |  |  | MIC ([1]; Bacillus subtilis, CMCC(B)63501, broth microdilution, LB broth, ~1.0 × 10^5 CFU/ml, 0.5 to 512.0 μg/ml, 37 °C, 24 h, OD600, performed three times): ≤ 0.5 µg/mL; MIC ([2]; Escherichia coli, CMCC(B) 44102, broth microdilution, LB broth, ~1.0 × 10^5 CFU/ml, 0.5 to 512.0 μg/ml, 37 °C, 24 h, OD600, performed three times): 8 µg/mL (≈ 18.9 µM); MIC ([3]; Listeria monocytogenes, ATCC19115, ATCC 19115, broth microdilution, LB broth, ~1.0 × 10^5 CFU/ml, 0.5 to 512.0 μg/ml, 37 °C, 24 h, OD600, performed three times): 4 µg/mL (≈ 9.43 µM); MIC ([4]; Pseudomonas aeruginosa, CMCC(B)10104, broth microdilution, LB broth, ~1.0 × 10^5 CFU/ml, 0.5 to 512.0 μg/ml, 37 °C, 24 h, OD600, performed three times): > 512 µg/mL; MIC ([5]; Staphylococcus aureus, CMCC(B)26003, broth microdilution, LB broth, ~1.0 × 10^5 CFU/ml, 0.5 to 512.0 μg/ml, 37 °C, 24 h, OD600, performed three times): 4 µg/mL (≈ 9.43 µM); MIC ([6]; Enterococcus faecalis): 16 µg/mL (≈ 37.7 µM)
2 | CC[C@H](C)[C@H](NC(=O)[C@H](CCCNC(=N)N)NC(=O)[C@H](CCCNC(=N)N)NC(=O)[C@H](CC(C)C)NC(=O)[C@@H](N)Cc1ccccc1)C(=O)N[C@@H](CCCNC(=N)N)C(=O)N[C@H](C(N)=O)C(C)C [FLRRIRV-NH2] (H-FLRRIRV-NH2) | 128 µg/mL (≈ 134 µM) | 128 µg/mL (≈ 134 µM) |  | 
3 | CC[C@H](C)[C@H](NC(=O)[C@H](CCCNC(=N)N)NC(=O)[C@H](CCCNC(=N)N)NC(=O)[C@H](CC(C)C)NC(=O)[C@@H](N)Cc1ccccc1)C(=O)N[C@@H](CCCNC(=N)N)C(=O)N[C@H](C(=O)N[C@H](C(=O)N1CCC[C@H]1C(=O)N[C@@H](Cc1c[nH]c2ccccc12)C(=O)N[C@H](C(=O)N[C@@H](CC(N)=O)C(=O)N1CCC[C@H]1C(=O)N1CCC[C@H]1C(=O)N[C@@H](Cc1ccccc1)C(=O)N[C@@H](CC(C)C)C(=O)N[C@@H](CCC(N)=O)C(=O)N[C@@H](CCC(N)=O)C(=O)N[C@H](C(N)=O)[C@@H](C)O)C(C)C)[C@@H](C)O)C(C)C [FLRRIRVTPWVNPPFLQQT-NH2] (H-FLRRIRVTPWVNPPFLQQT-NH2) | 128 µg/mL (≈ 54.1 µM) | 256 µg/mL (≈ 108 µM) |  | 
4 | CC[C@H](C)[C@H](NC(=O)[C@H](CCCNC(=N)N)NC(=O)[C@H](CCCNC(=N)N)NC(=O)[C@H](Cc1c[nH]c2ccccc12)NC(=O)[C@@H](N)Cc1ccccc1)C(=O)N[C@@H](CCCNC(=N)N)C(=O)N[C@H](C(N)=O)C(C)C [FWRRIRV-NH2] (H-FWRRIRV-NH2) | 32 µg/mL (≈ 31 µM) | 64 µg/mL (≈ 62.1 µM) | 128 µg/mL (≈ 124 µM) | 
5 | CC[C@H](C)[C@H](NC(=O)[C@H](CCCNC(=N)N)NC(=O)[C@H](CCCNC(=N)N)NC(=O)[C@H](Cc1c[nH]c2ccccc12)NC(=O)[C@@H](N)Cc1ccccc1)C(=O)N[C@@H](CCCNC(=N)N)C(=O)N[C@H](C(=O)N[C@H](C(=O)N1CCC[C@H]1C(=O)N[C@H](C(=O)N[C@H](C(=O)N[C@@H](CC(N)=O)C(=O)N1CCC[C@H]1C(=O)N1CCC[C@H]1C(=O)N[C@@H](Cc1ccccc1)C(=O)N[C@@H](CC(C)C)C(=O)N[C@@H](CCC(N)=O)C(=O)N[C@@H](CCC(N)=O)C(=O)N[C@H](C(N)=O)[C@@H](C)O)C(C)C)C(C)C)[C@@H](C)O)C(C)C [FWRRIRVTPVVNPPFLQQT-NH2] (H-FWRRIRVTPVVNPPFLQQT-NH2) | 256 µg/mL (≈ 109 µM) | 256 µg/mL (≈ 109 µM) |  | 
6 | CC[C@H](C)[C@H](NC(=O)[C@H](CCCNC(=N)N)NC(=O)[C@H](CCCNC(=N)N)NC(=O)[C@H](Cc1c[nH]c2ccccc12)NC(=O)[C@@H](N)Cc1ccccc1)C(=O)N[C@@H](CCCNC(=N)N)C(=O)N[C@H](C(=O)N[C@H](C(=O)N1CCC[C@H]1C(=O)N[C@H](C(=O)N[C@H](C(=O)N[C@@H](CC(N)=O)C(=O)N1CCC[C@H]1C(=O)N[C@@H](Cc1c[nH]c2ccccc12)C(=O)N[C@@H](Cc1ccccc1)C(=O)N[C@@H](CC(C)C)C(=O)N[C@@H](CCC(N)=O)C(=O)N[C@@H](CCC(N)=O)C(=O)N[C@H](C(N)=O)[C@@H](C)O)C(C)C)C(C)C)[C@@H](C)O)C(C)C [FWRRIRVTPVVNPWFLQQT-NH2] (H-FWRRIRVTPVVNPWFLQQT-NH2) | 32 µg/mL (≈ 13.1 µM) | 32 µg/mL (≈ 13.1 µM) | 64 µg/mL (≈ 26.2 µM) | MIC Escherichia coli ([2]; CMCC(B) 44102, 24 h): 256 µg/mL (≈ 105 µM); MIC Pseudomonas aeruginosa ([4]; CMCC(B)10104, 24 h): 256 µg/mL (≈ 105 µM)
7 | CC[C@H](C)[C@H](NC(=O)[C@H](CCCNC(=N)N)NC(=O)[C@H](CCCNC(=N)N)NC(=O)[C@H](Cc1c[nH]c2ccccc12)NC(=O)[C@@H](N)Cc1ccccc1)C(=O)N[C@@H](CCCNC(=N)N)C(=O)N[C@H](C(=O)N[C@H](C(=O)N1CCC[C@H]1C(=O)N[C@@H](Cc1c[nH]c2ccccc12)C(=O)N[C@H](C(=O)N[C@@H](CC(N)=O)C(=O)N1CCC[C@H]1C(=O)N1CCC[C@H]1C(=O)N[C@@H](Cc1ccccc1)C(=O)N[C@@H](CC(C)C)C(=O)N[C@@H](CCC(N)=O)C(=O)N[C@@H](CCC(N)=O)C(=O)N[C@H](C(N)=O)[C@@H](C)O)C(C)C)[C@@H](C)O)C(C)C [FWRRIRVTPWVNPPFLQQT-NH2] (H-FWRRIRVTPWVNPPFLQQT-NH2) | 64 µg/mL (≈ 26.2 µM) | 64 µg/mL (≈ 26.2 µM) | 256 µg/mL (≈ 105 µM) | 
8 | CC(C)C[C@H](NC(=O)[C@H](Cc1ccccc1)NC(=O)[C@@H]1CCCN1C(=O)[C@@H]1CCCN1C(=O)[C@H](CC(N)=O)NC(=O)[C@@H](NC(=O)[C@@H](NC(=O)[C@@H]1CCCN1C(=O)[C@@H](N)[C@@H](C)O)C(C)C)C(C)C)C(=O)N[C@@H](CCC(N)=O)C(=O)N[C@@H](CCC(N)=O)C(=O)N[C@H](C(N)=O)[C@@H](C)O [TPVVNPPFLQQT-NH2, reference compound] (H-TPVVNPPFLQQT-NH2) | 512 µg/mL (≈ 382 µM) |  |  | 
9 | FLRRIRVTPVVNPPFLQQT-NH2 |  |  |  | MIC Bacillus subtilis ([1]; CMCC(B)63501, broth microdilution, LB broth, ~1.0 × 10^5 CFU/ml, 0.5 to 512.0 μg/ml, 37 °C, 24 h, OD600, performed three times): — (“—” indicates that the peptide is inactive at 512 μg/ml.); MIC Escherichia coli ([2]; CMCC(B) 44102, broth microdilution, LB broth, ~1.0 × 10^5 CFU/ml, 0.5 to 512.0 μg/ml, 37 °C, 24 h, OD600, performed three times): — (“—” indicates that the peptide is inactive at 512 μg/ml.); MIC Listeria monocytogenes ([3]; ATCC 19115, broth microdilution, LB broth, ~1.0 × 10^5 CFU/ml, 0.5 to 512.0 μg/ml, 37 °C, 24 h, OD600, performed three times): — (“—” indicates that the peptide is inactive at 512 μg/ml.); MIC Pseudomonas aeruginosa ([4]; CMCC(B)10104, broth microdilution, LB broth, ~1.0 × 10^5 CFU/ml, 0.5 to 512.0 μg/ml, 37 °C, 24 h, OD600, performed three times): — (“—” indicates that the peptide is inactive at 512 μg/ml.); MIC Staphylococcus aureus ([5]; CMCC(B)26003, broth microdilution, LB broth, ~1.0 × 10^5 CFU/ml, 0.5 to 512.0 μg/ml, 37 °C, 24 h, OD600, performed three times): — (“—” indicates that the peptide is inactive at 512 μg/ml.); MIC Enterococcus faecalis [6]: — (“—” indicates that the peptide is inactive at 512 μg/ml.)
